# Results: US20250195510A1, “NOVEL METHODS” (priority 2022, published 2025)
# How the values were obtained:
# [1] = tested on: Hippocampal mRNA expression; test: Hippocampal mRNA (qRT-PCR) after acute restraint stress; assay type: in vivo, mouse; conditions: restraint stress 2 h + Luma 3 mg/kg IP; control 0, stressed −0.138
# Experimental: Quantitative Real-Time PCR. […] Heavy phase-lock gel tubes enabled separation of phases following the addition of 400 μL chloroform to the sample and centrifugation at 12,000 rpm for 10 minutes at room temperature. RNA is extracted using Qiagen Rneasy kit (Qiagen, Hilden, Germany). For cDNA synthesis, 2 μg of total RNA is used (SuperScript IV Reverse Transcriptase; ThermoFisher Scientific, Waltham, MA). The purity and concentration of RNA is measured with a Nanodrop spectrophotometer; the optical density (OD) 260/280 and OD 260/230 are within 1.8-2.3. In the hippocampus, 4 key markers of pro- and anti-inflammatory cytokines and chemokines (Il1b: ID Mm00434228_m1, Tnfa: ID Mm00443258_m1, Il6: ID Mm00446190_m1, and Il10: ID Mm01288386_ml; ThermoFisher Scientific) are initially chosen for analysis (n=5-12 per group). […] Mm00840904_m1). […] All mRNAs are measured by qRT-PCR on ABI Prism 7900HT system using TaqMan Gene Expression Assays. […] The results are shown in Table 4B as relative change in mRNA levels for each cytokine gene (Il1b, Il6, Tnfa, Il10) normalized to the control group using the Dct method: Using similar procedures as described above, serum corticosterone levels and hippocampal Cldn5 mRNA expression are measured as well (corticosterone is measured using a commercial ELISA kit).
# [2] = tested on: inflammatory biomarkers in PBMCs; test: Post-hoc analysis of inflammatory biomarkers in PBMCs, phase 3 trial, schizophrenia with co-morbid depression; assay type: in vivo, human; conditions: Day 28, 60 mg lumateperone tosylate once daily
# Experimental: A randomized, double-blind, placebo-controlled, phase 3 clinical trial was conducted with 450 patients with schizophrenia, aged 18 to 60 years, who were experiencing an acute exacerbation of psychosis. Patients were included if they were experiencing an acute exacerbation of psychosis, defined as a total score on the Brief Psychiatric Rating Scale of […] or higher, with a score of 4 or higher on 2 or more positive symptoms, and onset of the acute episode within 4 weeks of screening. Patients were required to have a score of 4 or higher, indicating moderate to severe disease severity, on the Clinical Global Impression-Severity of Illness (CGI-S) at screening and baseline. Severity of illness was confirmed at baseline by a Positive and Negative Syndrome Scale (PANSS) total score of 70 or higher, indicating moderate to extreme symptoms of schizophrenia. A subgroup of these patients experienced co-morbid depression symptoms at baseline (defined as having a Calgary Depression Scale for Schizophrenia (CDSS) score greater than 6 at baseline). Full details of the clinical study were reported in Correll et al., JAMA Psychiatry, 77 (4): 349-358 (2020).
# Patients were randomized 1:1:1 (150 patients in each arm) to receive, once daily for 28 days, cither 60 mg lumatepcrone tosylate (42 mg free base), 40 mg lumatepcrone tosylate (28 mg free base), or placebo.
# Using blood samples stored from the study, a post-hoc analysis of inflammatory biomarkers in PBMCs from the patients with schizophrenia and co-morbid depression is conducted. […] Day 0 samples are available for 20 patients, while day 28 samples are available only for 18 patients. Mean baseline CDSS is 10.0, and mean baseline PANSS total score is 88.7 in the selected patients.
# Samples were processed to isolate PBMC according to standard procedures using the Ficoll-Paque method. Statistical analysis was performed using the paired t-test, two-tailed. Samples were tested for C-reactive protein (CRP), serum amyloid A (SAA), soluble ICAM-1, soluble VCAM-1, IL-1β, TNF-α, IL-6, IL-10, IL-2, IL-8, IL-13, and IFN-γ. ICAM-1 and VCAM-1 are expressed by the vascular endothelium, macrophages, and lymphocytes. Upon cytokine stimulation, their concentrations greatly increase. ICAM-1 can be induced by IL-1ß and TNF. ICAM and VCAM proteins may also be involved in pathogen transit into CNS.
# The results are shown in the table below (biomarker levels expressed in ng/ml; some values of N are less than the patient totals due to samples with levels of biomarker below the minimum for quantification): […]
# [3] = tested on: patients with schizophrenia; test: Phase 3 clinical trial in schizophrenia with acute exacerbation of psychosis; assay type: in vivo, human; conditions: 60 mg or 40 mg lumateperone tosylate once daily for 28 days vs placebo
# Experimental: A randomized, double-blind, placebo-controlled, phase 3 clinical trial was conducted with 450 patients with schizophrenia, aged 18 to 60 years, who were experiencing an acute exacerbation of psychosis. Patients were included if they were experiencing an acute exacerbation of psychosis, defined as a total score on the Brief Psychiatric Rating Scale of […] or higher, with a score of 4 or higher on 2 or more positive symptoms, and onset of the acute episode within 4 weeks of screening. Patients were required to have a score of 4 or higher, indicating moderate to severe disease severity, on the Clinical Global Impression-Severity of Illness (CGI-S) at screening and baseline. […]
# The primary efficacy end point was mean change from baseline to day 28 in the Positive and Negative Syndrome Scale (PANSS) total score versus placebo. […] The PANSS subscale scores, social function, safety, and tolerability were also assessed. Primary and key secondary efficacy measures were assessed weekly. Safety was assessed by treatment-emergent adverse events (TEAEs), modified physical examinations, 12-lead electrocardiograms (ECGs), vital signs, and clinical laboratory tests (blood and urine samples for clinical laboratory analysis were collected from all subjects upon screening and on Days 1, 8, 28, and 33, following overnight fast).
smiles,measurement,setting,value
"CN1CCN2c3c(cccc31)[C@@H]1CN(CCCC(=O)c3ccc(F)cc3)CC[C@@H]12 [Lumateperone, 4-((6bR,10aS)-3-methyl-2,3,6b,9,10,10a-hexahydro-1H-pyrido[3′,4′: 4,5]pyrrolo[1,2,3-de]quinoxaline-8 (7H)-yl)-1-(4-fluorophenyl)-1-butanone]",Hippocampal Cldn5 mRNA expression,[1],0.330
same,"IL-10 level in PBMC, Median",[2]; Day 0 0.07,0.21 ng/mL
same,"IL-10 level in PBMC, Average",[2]; Day 0 0.09,2.14 ng/mL
same,"IL-2 level in PBMC, Median",[2]; Day 0 0.17,0.25 ng/mL
same,"IL-2 level in PBMC, Average",[2]; Day 0 0.18,0.37 ng/mL
same,"IL-6 level in PBMC, Median",[2]; Day 0 0.18,0.32 ng/mL
same,"IL-6 level in PBMC, Average",[2]; Day 0 0.20,0.55 ng/mL
same,"TNF-α level in PBMC, Average",[2]; Day 0 0.27,0.83 ng/mL
same,"TNF-α level in PBMC, Median",[2]; Day 0 0.27,0.43 ng/mL
same,"IFN-γ level in PBMC, Median",[2]; Day 0 1.01,0.71 ng/mL
same,"IFN-γ level in PBMC, Average",[2]; Day 0 1.11,0.86 ng/mL
same,"IL-13 level in PBMC, Median",[2]; Day 0 1.11,1.56 ng/mL
same,"IL-13 level in PBMC, Average",[2]; Day 0 1.31,2.38 ng/mL
same,"IL-1β level in PBMC, Median",[2]; Day 0 1.65,0.74 ng/mL
same,"IL-1β level in PBMC, Average",[2]; Day 0 1.76,1.01 ng/mL
same,"IL-8 level in PBMC, Median",[2]; Day 0 36.3,44.0 ng/mL
same,"sVCAM-1 level in PBMC, Median",[2]; Day 0 60.1,42.0 ng/mL
same,"CRP level in PBMC, Median",[2]; Day 0 61.3,38.0 ng/mL
same,"IL-8 level in PBMC, Average",[2]; Day 0 74.5,105.3 ng/mL
same,"CRP level in PBMC, Average",[2]; Day 0 78.8,50.5 ng/mL
same,"sVCAM-1 level in PBMC, Average",[2]; Day 0 78.9,49.1 ng/mL
same,"sICAM-1 level in PBMC, Median",[2]; Day 0 136.9,83.6 ng/mL
same,"sICAM-1 level in PBMC, Average",[2]; Day 0 184.8,119.6 ng/mL
same,"SAA level in PBMC, Median",[2]; Day 0 233.6,147.3 ng/mL
same,"SAA level in PBMC, Average",[2]; Day 0 286.9,157.9 ng/mL
same,"efficacy on symptoms of schizophrenia (PANSS total score, CGI-S)",[3],effective for improving the symptoms of schizophrenia
same,safety and tolerability,[3],favorable safety profile
